Source: paper PMC8175350, “Drug repurposing screens identify chemical entities for the development of COVID-19 interventions” (Nature Communications, 2021)
Where “and” joins values, the source holds several entries; their conditions need not be identical. Equal entries are not always repeated. Where two headings read alike, the source gives them in different places.

How the values were obtained:
HeLa-ACE2 cells [1] = assay: Uninfected HeLa-ACE2 24 h live/dead cytotoxicity counter screen; assay type: cell-based, human; settings: HeLa-ACE2; concentration log[M] -8.59517; replicates
[2] = as above; assay type: cell-based, human; settings: human, uninfected HeLa-ACE2 cells, detail block; read-out: HeLa-ACE2 uninfected cytotoxicity CC50 GeoMean
HeLa-ACE2 cells [3] = assay: cells; settings: Homo sapiens
HeLa-ACE2 cells [4] = assay: cells; assay type: cell-based, human; settings: Homo sapiens, HeLa-ACE2; read-out: HeLa-ACE2 TOA cell count EC50 GeoMean
in vitro [5] = settings: human, Calu-3 uninfected cytotoxicity CC50 GeoMean
SARS-CoV-2 [6] = assay: Hamster lung RNA-Seq analysis; assay type: in vivo, Golden Syrian hamster; settings: 500 mg/kg
SARS-CoV-2 [7] = assay: Golden Syrian hamster SARS-CoV-2 efficacy model, body weight; assay type: in vivo; settings: for group average % of starting weight: day 5 of infection
SARS-CoV-2 [8] = assay: microbe, parasite or virus in culture; assay type: cell-based
Calu-3 cells [9] = assay: cells; settings: Homo sapiens
Calu-3 cells [10] = system: Calu-3 cells
SARS-CoV-2 [11] = assay: microbe, parasite or virus in culture; assay type: cell-based; remark: listed apart in the source
SARS-CoV-2 [12] = assay: Hamster lung viral titer by plaque assay, day 5; assay type: in vivo, Golden Syrian hamster; settings: for SARS-CoV-2 viral load in lung by plaque quantification, individual animals: values look like log10
in vitro [13] = settings: human
SARS-CoV-2 [14] = assay: Hamster lung histopathology/infiltrate quantification (H&E, ImageJ); assay type: in vivo, Golden Syrian hamster; settings: 500 mg/kg
Source text: ImageJ (V1.53) software is used to quantify H&E-stained slide images (at ×20 magnification). Images are first converted to 8-Bit (Image > Type > 8-Bit), their threshold is adjusted (Image > Adjust > Threshold), a threshold value between 70–80% is chosen to ensure only dark stained nuclei are detected. Following thresholding the image is converted to a mask (Process > Binary > Convert to Mask) and analyzed (Analyze > Analyze Particles) with default settings, adding display results and show outline and the output was exported into GraphPad Prism (V9.0.0) where the nonparametric, two-sided Mann–Whitney statistical test was used to calculate significance.

in vitro [15] = settings: human; remark: listed apart in the source
SARS-CoV-2 [16] = assay type: cell-based; settings: 72 hpi
[17] = Pharmacokinetic studies in Syrian hamsters, PO; assay type: in vivo; settings: male, Syrian, hamster, in vivo
Protocol: Pharmacokinetic studies were conducted at Scripps Research Institute’s Animal Models Core in accordance with IACUC guidelines (IACUC Protocol #09-0004-5). Eight-week-old male Syrian Hamsters (Charles River; three per group) were dosed PO as indicated for each compound and formulation. Plasma concentration of each test article was monitored up to 48 h. Nelfinavir was formulated in 10% DMSO/90% corn oil and MK-4482 was formulated in 10% PEG400/2.5% Cremaphor RH40 for both pharmacokinetic and efficacy studies.

SARS-CoV-2 [18] = assay: microbe, parasite or virus in culture; assay type: cell-based; settings: for %infected: Calu-3, replicates n=1, n=2

## CC(C)C(=O)OC[C@H]1O[C@@H](n2ccc(NO)nc2=O)[C@H](O)[C@@H]1O [MK-4482]
HeLa-ACE2 cells [1]
  cytotox: -0.706 and -12.7385 and -12.928 and 0.5106 and 4.684 and -11.4286 and -5.289 and -2.8 and 6.41
[2]
  CC50 at 24 h: > 39.8 µM
HeLa-ACE2 cells [3]; HeLa-ACE2, 24 h, read-out: HeLa-ACE2 cell count Sinf Average
  Emax: 100%
HeLa-ACE2 cells [3]; HeLa-ACE2, read-out: HeLa-ACE2 cell count EC50 GeoMean, detail block
  EC50: > 9.59 µM
HeLa-ACE2 cells [4]
  EC50: > 9.59 µM
In vitro [5]
  CC50 at 48 h: > 29.9 µM
SARS-CoV-2 [6]
  genes significantly down regulated vs infected vehicle-treated controls (DESeq2): 66 genes
  unsupervised hierarchical clustering of lung RNA-Seq samples: clustered together with uninfected samples
SARS-CoV-2 [7]; 50 mg/kg PO BID
  group average % of starting weight: 90%
SARS-CoV-2 [7]; 50 mg/kg, Day 1
  Percent weight from day 0, individual animals: 100.619% and 100% and 99.9008% and 97.2408% and 100.231%
SARS-CoV-2 [7]; 50 mg/kg, Day 2
  Percent weight from day 0, individual animals: 97.6006% and 97.2498% and 96.3294% and 93.8963% and 97.0023%
SARS-CoV-2 [7]; 50 mg/kg, Day 3
  Percent weight from day 0, individual animals: 96.13% and 95.8747% and 93.0556% and 92.5585% and 94.3121%
SARS-CoV-2 [7]; 50 mg/kg, Day 4
  Percent weight from day 0, individual animals: 94.4272% and 93.9649% and 89.1865% and 91.7224% and 90.8532%
SARS-CoV-2 [7]; 50 mg/kg, Day 5
  Percent weight from day 0, individual animals: 93.4985% and 90.2215% and 86.4087% and 91.3043% and 88.9316%
SARS-CoV-2 [7]; 150 mg/kg PO BID
  group average % of starting weight: 89%
SARS-CoV-2 [7]; 150 mg/kg, Day 1
  Percent weight from day 0, individual animals: 99.3145% and 100.794% and 101.014% and 100.59% and 100.598%
SARS-CoV-2 [7]; 150 mg/kg, Day 2
  Percent weight from day 0, individual animals: 97.0009% and 97.9349% and 97.6599% and 97.2199% and 98.281%
SARS-CoV-2 [7]; 150 mg/kg, Day 3
  Percent weight from day 0, individual animals: 94.7729% and 96.1875% and 94.7738% and 95.7035% and 94.843%
SARS-CoV-2 [7]; 150 mg/kg, Day 4
  Percent weight from day 0, individual animals: 92.1165% and 92.5338% and 92.3635% and 94.524% and 91.4798%
SARS-CoV-2 [7]; 150 mg/kg, Day 5
  Percent weight from day 0, individual animals: 90.4884% and 88.2446% and 89.2356% and 90.9014% and 88.0419%
SARS-CoV-2 [7]; 500 mg/kg PO BID
  group average % of starting weight: 97%
SARS-CoV-2 [7]; 500 mg/kg, Day 1
  Percent weight from day 0, individual animals: 100.542% and 100.174% and 100.172% and 100.97% and 95.4962%
SARS-CoV-2 [7]; 500 mg/kg, Day 2
  Percent weight from day 0, individual animals: 100.619% and 100.174% and 98.4483% and 98.806% and 95.246%
SARS-CoV-2 [7]; 500 mg/kg, Day 3
  Percent weight from day 0, individual animals: 101.161% and 99.7394% and 97.8448% and 97.1642% and 96.9975%
SARS-CoV-2 [7]; 500 mg/kg, Day 4
  Percent weight from day 0, individual animals: 100.774% and 99.5656% and 97.1552% and 94.5522% and 97.9983%
SARS-CoV-2 [7]; 500 mg/kg, Day 5
  Percent weight from day 0, individual animals: 100.31% and 99.7394% and 95.9483% and 95.597% and 98.0817%
SARS-CoV-2 [8]; HeLa-ACE2, log[M] -7.8551
  TOA: 2.9089 and 4.102 and 5.064
SARS-CoV-2 [8]; Severe acute respiratory syndrome coronavirus 2, HeLa-ACE2, detail block, read-out: HeLa-ACE2 TOA CoV-2 EC50 GeoMean
  EC50: > 9.59 µM
SARS-CoV-2 [8]; TOA EC50 / HeLa-ACE2 SARS-CoV-2 EC50
  TOA:HeLa-ACE2 EC50 Ratio: 1.014
Calu-3 cells [9]; Calu-3, 48 h, read-out: Calu-3 cell count Sinf Average
  Emax: 100%
Calu-3 cells [9]; Calu-3, read-out: Calu-3 cell count EC50 GeoMean, detail block
  EC50: > 9.98 µM
Calu-3 cells [10]
  uninfected Calu-3 CC50: > 29.85 ×÷ 1 (n=2) μM
Calu-3 cells [10]; human
  cytotox: -7.212
SARS-CoV-2 [11]; Severe acute respiratory syndrome coronavirus 2, HeLa-ACE2, 24 h, curve plateau at infinite concentration, read-out: HeLa-ACE2 CoV-2 Sinf Average
  Emax: 100%
SARS-CoV-2 [11]; Severe acute respiratory syndrome coronavirus 2, HeLa-ACE2, detail block, read-out: HeLa-ACE2 CoV-2 EC50 GeoMean
  EC50: > 9.45 µM
SARS-CoV-2 [11]; selectivity index, uninfected HeLa-ACE2 CC50 / SARS-CoV-2 EC50
  HeLa-ACE2 SI: > 4.21
SARS-CoV-2 [12]; 50 mg/kg PO BID, compared to vehicle control
  viral reduction: 99%
SARS-CoV-2 [12]; 50 mg/kg PO BID, day 5, group average
  live viral titers in the lungs: 4.5 × 10^3 PFU/lung
SARS-CoV-2 [12]; 50 mg/kg, day 5
  SARS-CoV-2 viral load in lung by plaque quantification, individual animals: 4.176 and 0 and 3.653 and 4.477
SARS-CoV-2 [12]; 150 mg/kg PO BID, day 5
  live viral titers in the lungs: undetectable
SARS-CoV-2 [12]; 150 mg/kg, day 5
  SARS-CoV-2 viral load in lung by plaque quantification, individual animals: 0
SARS-CoV-2 [12]; 500 mg/kg PO BID, day 5
  live viral titers in the lungs: undetectable
SARS-CoV-2 [12]; 500 mg/kg, day 5
  SARS-CoV-2 viral load in lung by plaque quantification, individual animals: 0
In vitro [13]
  CC50 at 72 h: > 39.8 µM
SARS-CoV-2 [14]
  histological examination of lungs: protected
SARS-CoV-2 [14]; MK-4482-treated, Hamster 1-4, individual images
  abundance of cellularity and infiltrates in the lungs (ImageJ): 2983 and 5397 and 4186 and 5390 and 1931 and 4673 and 3775 and 5624 and 2350 and 4146 and 3662 and 5094 and 4440 and 4933 and 3481 and 5058 and 2520 and 4471 and 3837 and 4151 and 2838 and 4738 and 3878 and 3011 and 2773
In vitro [15]
  CC50 at 72 h: > 39.8 µM
SARS-CoV-2 [16]
  reduction in apical viral loads: > 1 log
[17]
  Cl: 401.00 mL/min/kg
SARS-CoV-2 [18]; concentration log[M] -5.00096
  %infected: -32.7882% and -37.4837% and -33.6325% and -41.3774% and -26.9927% and -42.8416%
SARS-CoV-2 [18]; concentration log[M] -5.47808
  %infected: -27.4805% and -3.693% and -9.149% and -11.3438% and 9.653% and -8.935%
SARS-CoV-2 [18]; concentration log[M] -6.08014
  %infected: 23.1125% and 4.59% and 25.286% and 17.3454% and 15.2546% and 10.3832%
SARS-CoV-2 [18]; concentration log[M] -6.42922
  %infected: 17.3493% and 17.6914% and 5.1734% and 5.136% and 26.2062% and 8.78%
SARS-CoV-2 [18]; concentration log[M] -6.90623
  %infected: 7.3785% and 13.9122% and -0.1637% and 2.863% and 27.9695% and 13.9935%
SARS-CoV-2 [18]; concentration log[M] -7.50836
  %infected: -8.777% and 19.9854% and 1.789% and 24.5386% and 23.5481% and -28.3332%
SARS-CoV-2 [18]; concentration log[M] -7.85886
  %infected: 17.2433% and 32.9409% and -21.7492% and 16.4627% and 42.3108% and 21.6153%
SARS-CoV-2 [18]; concentration log[M] -8.33602
  %infected: 11.8145% and 8.098% and -0.8953% and 19.1715% and 30.2349% and 22.7038%
SARS-CoV-2 [18]; Severe acute respiratory syndrome coronavirus 2, Calu-3, 48 h, curve plateau at infinite concentration, read-out: Calu-3 CoV-2 Sinf Average
  Emax: 100%
SARS-CoV-2 [18]; Severe acute respiratory syndrome coronavirus 2, Calu-3, detail block, read-out: Calu-3 CoV-2 EC50 GeoMean
  EC50: > 9.98 µM
